From publication PMC6333238, “The biosynthetic implications of late-stage condensation domain selectivity during glycopeptide antibiotic biosynthesis” (Chemical Science, 2018)

Assays:
Test in all cases: coupled PPi-release A-domain assay (PPi-PFK/aldolase/TPI/GDH, NADH)
Assay type in all cases: biochemical
Settings in all cases: apo-PCP form, 0.5 mM ATP, 1 mM MgCl2, pH 7.4, 0.1 mM EDTA, enzyme 0.5 μM
Tcp12_ΔTE1 = target: T1, Tcp12_ΔTE1 (Actinoplanes teichomyceticus, UniProt Q70AZ6)
T1 construct: gene tcp12; with MbtH-like protein Tcp17
Excerpt: coupled PPi-release A-domain assay (PPi-PFK/aldolase/TPI/GDH, NADH) on Tcp12_ΔTE1

Tcp12_ΔTE3 = target: T2, Tcp12_ΔTE3 (Actinoplanes teichomyceticus, UniProt Q70AZ6)
T2 construct: gene tcp12; with MbtH-like protein Tcp17
Excerpt: coupled PPi-release A-domain assay (PPi-PFK/aldolase/TPI/GDH, NADH) on Tcp12_ΔTE3

Tcp12_ΔTE2 = target: T3, Tcp12_ΔTE2 (Actinoplanes teichomyceticus, UniProt Q70AZ6)
T3 construct: gene tcp12; with MbtH-like protein Tcp17
Excerpt: coupled PPi-release A-domain assay (PPi-PFK/aldolase/TPI/GDH, NADH) on Tcp12_ΔTE2

T2 sequence (Q70AZ6 entry or part of it, stated change not applied): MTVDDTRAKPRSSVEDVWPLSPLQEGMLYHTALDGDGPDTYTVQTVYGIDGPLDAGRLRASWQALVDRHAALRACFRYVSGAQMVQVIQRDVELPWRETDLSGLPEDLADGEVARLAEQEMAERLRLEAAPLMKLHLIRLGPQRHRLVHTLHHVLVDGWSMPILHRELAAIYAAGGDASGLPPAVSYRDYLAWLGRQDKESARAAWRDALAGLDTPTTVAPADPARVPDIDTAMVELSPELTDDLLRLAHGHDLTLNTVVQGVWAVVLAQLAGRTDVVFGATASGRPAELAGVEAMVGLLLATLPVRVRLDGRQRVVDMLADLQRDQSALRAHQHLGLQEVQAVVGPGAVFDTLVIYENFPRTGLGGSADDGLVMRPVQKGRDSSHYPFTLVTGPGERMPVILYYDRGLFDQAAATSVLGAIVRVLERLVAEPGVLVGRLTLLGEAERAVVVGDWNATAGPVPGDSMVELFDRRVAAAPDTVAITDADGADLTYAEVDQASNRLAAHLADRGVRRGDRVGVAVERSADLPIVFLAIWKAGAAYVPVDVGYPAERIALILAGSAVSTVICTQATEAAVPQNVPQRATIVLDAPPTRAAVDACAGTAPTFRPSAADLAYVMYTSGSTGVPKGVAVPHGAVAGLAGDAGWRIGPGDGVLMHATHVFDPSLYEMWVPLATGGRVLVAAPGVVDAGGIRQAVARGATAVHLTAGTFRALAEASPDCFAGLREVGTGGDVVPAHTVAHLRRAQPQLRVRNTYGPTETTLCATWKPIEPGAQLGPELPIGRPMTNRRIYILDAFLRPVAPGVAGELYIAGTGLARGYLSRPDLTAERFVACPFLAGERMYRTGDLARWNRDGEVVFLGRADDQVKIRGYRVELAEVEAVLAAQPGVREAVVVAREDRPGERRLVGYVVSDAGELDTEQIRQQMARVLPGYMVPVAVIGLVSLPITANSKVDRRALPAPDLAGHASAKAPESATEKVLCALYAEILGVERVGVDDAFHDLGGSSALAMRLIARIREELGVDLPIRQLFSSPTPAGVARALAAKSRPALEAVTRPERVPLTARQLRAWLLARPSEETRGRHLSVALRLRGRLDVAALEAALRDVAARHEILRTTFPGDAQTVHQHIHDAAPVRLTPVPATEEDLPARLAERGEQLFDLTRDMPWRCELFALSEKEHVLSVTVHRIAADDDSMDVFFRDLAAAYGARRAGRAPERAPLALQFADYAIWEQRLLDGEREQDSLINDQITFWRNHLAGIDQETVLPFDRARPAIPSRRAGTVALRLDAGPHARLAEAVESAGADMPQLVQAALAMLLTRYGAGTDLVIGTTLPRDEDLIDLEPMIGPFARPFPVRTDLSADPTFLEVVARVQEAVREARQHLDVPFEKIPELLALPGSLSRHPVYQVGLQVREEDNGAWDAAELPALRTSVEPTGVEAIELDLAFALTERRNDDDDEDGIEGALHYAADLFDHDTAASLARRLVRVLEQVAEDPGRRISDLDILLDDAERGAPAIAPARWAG
T2 sequence (Q70AZ1 entry or part of it, stated change not applied, further chain): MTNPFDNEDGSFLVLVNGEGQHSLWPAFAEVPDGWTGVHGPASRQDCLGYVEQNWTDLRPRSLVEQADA
T3 sequence (Q70AZ6 entry or part of it, stated change not applied): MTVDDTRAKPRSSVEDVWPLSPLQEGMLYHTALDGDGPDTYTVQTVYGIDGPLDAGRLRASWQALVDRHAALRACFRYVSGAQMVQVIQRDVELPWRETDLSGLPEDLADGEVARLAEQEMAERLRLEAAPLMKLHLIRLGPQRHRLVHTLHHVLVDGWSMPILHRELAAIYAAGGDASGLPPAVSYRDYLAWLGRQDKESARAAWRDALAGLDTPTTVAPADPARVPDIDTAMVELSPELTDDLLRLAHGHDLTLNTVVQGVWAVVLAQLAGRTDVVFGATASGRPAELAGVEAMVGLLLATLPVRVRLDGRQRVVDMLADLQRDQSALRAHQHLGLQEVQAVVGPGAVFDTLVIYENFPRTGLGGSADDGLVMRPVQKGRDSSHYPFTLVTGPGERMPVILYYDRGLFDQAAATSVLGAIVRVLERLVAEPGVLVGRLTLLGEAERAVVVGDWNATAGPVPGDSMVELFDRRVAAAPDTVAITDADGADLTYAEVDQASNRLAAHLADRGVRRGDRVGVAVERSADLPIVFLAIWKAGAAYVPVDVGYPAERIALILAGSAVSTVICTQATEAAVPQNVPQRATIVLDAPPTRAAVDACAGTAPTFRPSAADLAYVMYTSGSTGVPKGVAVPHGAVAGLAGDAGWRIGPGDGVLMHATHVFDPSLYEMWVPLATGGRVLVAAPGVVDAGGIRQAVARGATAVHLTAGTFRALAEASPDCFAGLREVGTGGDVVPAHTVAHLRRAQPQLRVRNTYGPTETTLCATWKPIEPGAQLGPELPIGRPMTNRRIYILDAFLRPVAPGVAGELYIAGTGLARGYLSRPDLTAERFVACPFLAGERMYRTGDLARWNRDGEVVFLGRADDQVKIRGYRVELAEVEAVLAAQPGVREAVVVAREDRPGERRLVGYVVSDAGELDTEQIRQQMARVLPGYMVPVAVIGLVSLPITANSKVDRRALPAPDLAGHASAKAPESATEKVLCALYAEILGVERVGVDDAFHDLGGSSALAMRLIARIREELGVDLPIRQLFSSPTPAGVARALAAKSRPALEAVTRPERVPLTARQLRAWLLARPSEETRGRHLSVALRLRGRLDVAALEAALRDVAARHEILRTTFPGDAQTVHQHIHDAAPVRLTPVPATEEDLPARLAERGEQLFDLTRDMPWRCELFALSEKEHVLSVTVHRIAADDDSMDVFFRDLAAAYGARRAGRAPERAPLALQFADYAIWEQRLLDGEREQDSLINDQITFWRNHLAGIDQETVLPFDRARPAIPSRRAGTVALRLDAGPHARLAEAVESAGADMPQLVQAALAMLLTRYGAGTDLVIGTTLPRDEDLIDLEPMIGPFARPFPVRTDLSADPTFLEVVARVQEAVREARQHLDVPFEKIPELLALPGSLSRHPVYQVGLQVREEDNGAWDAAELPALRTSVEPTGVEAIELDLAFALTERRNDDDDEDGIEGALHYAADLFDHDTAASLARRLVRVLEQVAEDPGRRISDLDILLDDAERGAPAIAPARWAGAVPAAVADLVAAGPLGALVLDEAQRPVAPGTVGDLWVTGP
T3 sequence (Q70AZ1 entry or part of it, stated change not applied, further chain): as the sequence (Q70AZ1 entry or part of it, stated change not applied, further chain) above
T1 sequence (Q70AZ6 entry or part of it, stated change not applied): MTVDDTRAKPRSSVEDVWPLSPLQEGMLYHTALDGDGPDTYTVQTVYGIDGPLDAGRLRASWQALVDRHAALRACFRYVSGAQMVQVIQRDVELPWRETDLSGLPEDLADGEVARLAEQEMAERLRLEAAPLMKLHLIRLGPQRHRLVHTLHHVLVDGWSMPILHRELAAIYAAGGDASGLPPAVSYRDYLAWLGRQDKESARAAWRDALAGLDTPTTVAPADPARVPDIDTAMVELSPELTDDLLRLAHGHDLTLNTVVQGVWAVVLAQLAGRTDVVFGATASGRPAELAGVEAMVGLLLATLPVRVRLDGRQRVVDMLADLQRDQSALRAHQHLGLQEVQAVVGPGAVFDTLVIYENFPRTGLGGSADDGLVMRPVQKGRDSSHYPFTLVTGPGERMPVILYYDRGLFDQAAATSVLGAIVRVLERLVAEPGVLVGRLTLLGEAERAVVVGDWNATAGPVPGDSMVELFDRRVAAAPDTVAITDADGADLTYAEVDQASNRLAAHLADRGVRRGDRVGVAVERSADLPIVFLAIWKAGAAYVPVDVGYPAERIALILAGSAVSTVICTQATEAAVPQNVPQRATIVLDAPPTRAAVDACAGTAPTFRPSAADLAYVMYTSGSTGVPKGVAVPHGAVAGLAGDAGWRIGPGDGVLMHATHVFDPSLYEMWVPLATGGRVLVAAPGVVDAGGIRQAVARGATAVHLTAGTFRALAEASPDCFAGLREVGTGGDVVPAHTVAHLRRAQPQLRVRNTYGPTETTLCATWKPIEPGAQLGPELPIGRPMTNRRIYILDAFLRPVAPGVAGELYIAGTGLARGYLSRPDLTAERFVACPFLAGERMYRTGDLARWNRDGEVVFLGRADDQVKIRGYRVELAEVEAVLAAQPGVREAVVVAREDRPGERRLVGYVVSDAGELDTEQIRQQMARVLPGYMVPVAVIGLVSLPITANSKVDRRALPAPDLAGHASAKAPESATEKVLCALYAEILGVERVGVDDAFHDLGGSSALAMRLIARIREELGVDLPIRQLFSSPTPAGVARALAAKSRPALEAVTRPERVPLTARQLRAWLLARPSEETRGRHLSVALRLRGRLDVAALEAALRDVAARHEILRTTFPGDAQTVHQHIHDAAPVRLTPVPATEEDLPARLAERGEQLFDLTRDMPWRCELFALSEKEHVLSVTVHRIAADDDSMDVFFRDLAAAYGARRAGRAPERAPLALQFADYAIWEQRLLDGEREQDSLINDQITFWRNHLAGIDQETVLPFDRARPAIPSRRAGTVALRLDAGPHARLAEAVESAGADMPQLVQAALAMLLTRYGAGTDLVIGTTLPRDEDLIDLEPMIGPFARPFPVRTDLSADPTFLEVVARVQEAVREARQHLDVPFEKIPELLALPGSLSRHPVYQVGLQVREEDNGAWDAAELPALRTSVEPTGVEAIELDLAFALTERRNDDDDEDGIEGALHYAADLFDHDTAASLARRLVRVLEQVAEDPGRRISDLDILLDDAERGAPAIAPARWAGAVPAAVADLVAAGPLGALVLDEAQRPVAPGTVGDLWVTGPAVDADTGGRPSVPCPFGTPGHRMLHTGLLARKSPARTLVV
T1 sequence (Q70AZ1 entry or part of it, stated change not applied, further chain): as the sequence (Q70AZ1 entry or part of it, stated change not applied, further chain) above

Km (Tcp12_ΔTE1): 6 ± 0.6 µM
Km (Tcp12_ΔTE3): 8 ± 0.6 µM
Km (Tcp12_ΔTE2): 10 ± 0.9 µM
SMILES: N[C@H](C(=O)O)c1cc(O)cc(O)c1 [Dpg, (S)-3,5-dihydroxyphenylglycine]
